Like-named read-outs stand apart in the source and are kept apart here.
What was measured:
[1] = for Formation of a precipitate: 1 mL calcium chloride solution (50 mM) added to 10 mL of 100 mM phosphate solution
[2] = cited from earlier work; for Maximum particle energy: beta particles

Compound | Half-life ([2]; beta emitters) | Maximum particle energy [2] | further results
O=P([O-])([O-])O.[Na+].[Na+] [disodium hydrogen phosphate] | – | – | Formation of a precipitate [1]: heavy visible precipitate
[125IH] [iodine-125] | – | – | Half-life ([2]; electron capture emitters): 60 days; Particle energy ([2]; electron capture emitters): 0.035 MeV
[131IH] [iodine-131] | 8.04 days | 0.61 MeV | –
[103Pd] [palladium-103] | – | – | Half-life ([2]; electron capture emitters): 17 days; Particle energy ([2]; electron capture emitters): 0.05 MeV
[103Ru] [ruthenium-103] | 40 days | 0.214 MeV | –
[153Sm] [samarium-153] | 1.96 days | 0.7 (>50%) MeV | –
O=P([O-])(O)O.[Na+] [sodium dihydrogen phosphate] | – | – | Formation of a precipitate [1]: no precipitate was formed; Amount of precipitate formed as a function of sodium hydroxide (0.05 M) added ([1]; 50 mL sodium dihydrogen phosphate (100 mM) and 5 mL calcium chloride (50 mM)): a precipitate of calcium phosphate begins to form
[89Sr] [strontium-89] | 51 days | 1.46 MeV | –
[90Y] [yttrium-90] | 2.68 days | 2.27 MeV | –
phosphorus-32 | approximately 14 days | 1.71 MeV | –
